PMC5963591, “Bitopic Binding Mode of an M1 Muscarinic Acetylcholine Receptor Agonist Associated with Adverse Clinical Trial Outcomes” (Molecular Pharmacology, 2018)

Target: T1, human mAChR M3 (Homo sapiens, UniProt P20309)
T1 construct: purchased PerkinElmer; host or cells: CHO
Assay: [3H]-NMS competition binding, CHO membranes, M3
Conditions: compared with other subtypes
Method: For competition binding experiments at M1, M2, M3, M4, and M5 mAChRs, CHO membranes were purchased from PerkinElmer. All experiments were performed in assay buffer of the following composition: 20 mM HEPES, 100 mM NaCl, and 10 mM MgCl2, pH 7.5, and used 10 µg protein/well in a total assay volume of 1 ml using deep well blocks. […] All assay incubations were initiated by the addition of membrane suspensions and deep well blocks were shaken for 5 minutes to ensure complete mixing. Incubation was then carried out for 2 hours at 21°C. Binding reactions were terminated by rapid filtration through GF/A filters (PerkinElmer) presoaked with 0.5% (w/v) polyethylenimine for 1 hour. Filters were then washed three times with 1 ml ice-cold assay buffer.
Inhibition binding data were curve-fit using GraphPad Prism 6 to derive the potency (IC50) of the test compound. The equilibrium dissociation constant (KI) of the test compound was then calculated with the Cheng–Prusoff equation: KI = IC50/[1 + ([L]/KD)] using the KD value derived separately from saturation binding studies.

T1 sequence (P20309 whole entry): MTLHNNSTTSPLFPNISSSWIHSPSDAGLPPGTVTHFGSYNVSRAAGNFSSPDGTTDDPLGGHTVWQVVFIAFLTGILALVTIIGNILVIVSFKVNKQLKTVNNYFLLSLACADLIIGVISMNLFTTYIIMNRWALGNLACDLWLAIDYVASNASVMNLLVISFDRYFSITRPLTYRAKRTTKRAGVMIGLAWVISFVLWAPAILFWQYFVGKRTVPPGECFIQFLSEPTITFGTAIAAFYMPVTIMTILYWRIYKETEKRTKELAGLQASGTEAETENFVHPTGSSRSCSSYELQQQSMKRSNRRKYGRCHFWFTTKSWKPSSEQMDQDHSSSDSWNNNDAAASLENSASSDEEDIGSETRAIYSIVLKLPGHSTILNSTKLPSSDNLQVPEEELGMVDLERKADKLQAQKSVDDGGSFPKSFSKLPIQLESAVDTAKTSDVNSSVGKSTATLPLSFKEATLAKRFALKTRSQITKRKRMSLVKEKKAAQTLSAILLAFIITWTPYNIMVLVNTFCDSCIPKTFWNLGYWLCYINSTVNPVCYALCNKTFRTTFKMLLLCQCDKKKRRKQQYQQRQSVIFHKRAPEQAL

Cc1cc(F)c2[nH]c(=O)n(C3CCN(C4CCOCC4)CC3)c2c1 [GSK1034702, 7-fluoro-5-methyl-3-[1-(oxan-4-yl)piperidin-4-yl]-1H-benzimidazol-2-one]
affinity for the M3 mAChR: much lower affinity
